Source: US20230399312A1, “SUBSTITUTED PYRIMIDINES AND METHODS OF USE” (THERAVANCE BIOPHARMA R&D IP, LLC, priority 2020, published 2023)

Tests used:
[1] = target: T1, recombinant human ALK5 (TGF-βR1) protein (Homo sapiens, UniProt P36897); assay: Biochemical ALK5 (TGF-βR1) assay to measure pKi (LANCE Ultra ULight kinase assay); conditions: apparent pKi, converted from pIC50 by Cheng-Prusoff
T1 construct: purchased Life Technologies PR9075A
T1 sequence (P36897 34-503): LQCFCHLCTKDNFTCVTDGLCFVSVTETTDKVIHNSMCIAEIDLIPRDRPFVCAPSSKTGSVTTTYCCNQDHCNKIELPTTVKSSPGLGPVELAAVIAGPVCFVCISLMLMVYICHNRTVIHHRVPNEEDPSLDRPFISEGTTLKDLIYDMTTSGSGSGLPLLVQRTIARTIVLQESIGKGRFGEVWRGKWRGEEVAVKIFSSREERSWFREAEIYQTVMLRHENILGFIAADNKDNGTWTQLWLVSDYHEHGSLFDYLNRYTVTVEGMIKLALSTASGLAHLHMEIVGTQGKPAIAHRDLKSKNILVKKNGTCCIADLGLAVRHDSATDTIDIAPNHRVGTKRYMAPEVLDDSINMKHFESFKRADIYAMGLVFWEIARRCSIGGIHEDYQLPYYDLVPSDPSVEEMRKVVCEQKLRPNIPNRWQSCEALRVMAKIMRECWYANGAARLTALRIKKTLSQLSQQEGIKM
Method in brief: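 Enzyme was preincubated with compound for 60 min at room temperature, then ATP (added from a 125 μM 5× stock with 2 mM DTT) started a 60 min reaction at 37 °C. EDTA plus Eu-anti-phospho-Topo2α (Thr1342) antibody stopped it; TR-FRET pIC50 values were converted to pKi by Cheng-Prusoff.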

[2] = test system: TGF-β-stimulated SMAD3 phosphorylation in BEAS-2B cells; assay: Cellular ALK5 potency assay, inhibition of TGF-β stimulated pSMAD3 formation in BEAS-2B cells; type: cell-based; conditions: Homo sapiens, pSMAD3, TGF-β 10 ng/mL, read-out: BEAS2B pIC50 (converted)
Method in brief: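 BEAS-2B cells, HBSS/25 mM HEPES/1% BSA buffer; cpd 1 h, 37 °C; TGF-β 10 ng/mL final, 30 min; lysis, AlphaLISA pSMAD3 read next day. pIC50 vs stimulated no-compound baseline.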

| Compound | Ki [1] | IC50 [2] |
| --- | --- | --- |
| Cc1cccc(-c2nccc(Nc3ccnc(Nc4csc(NC(=O)C5CNC5)c4)n3)n2)n1 [Compound 211, N-[4-[[4-[[2-(6-methyl-2-pyridyl)pyrimidin-4-yl]amino]pyrimidin-2-yl]amino]-2-thienyl]azetidine-3-carboxamide] | 0.0398 to 0.316 nM | 25.1 to 158 nM |
| Cc1cccc(-c2nccc(Nc3ccnc(Nc4ccc(S(=O)(=O)N5CCN(C(C)C)CC5)cc4)n3)n2)n1 [Compound 213, N2-[4-(4-isopropylpiperazin-1-yl)sulfonylphenyl]-N4-[2-(6-methyl-2-pyridyl)pyrimidin-4-yl]pyrimidine-2,4-diamine] | 0.0398 to 0.316 nM | 25.1 to 158 nM |
| Cc1cccc(-c2nccc(Nc3ccnc(Nc4ccc(CN5CCCC(C(=O)NC6CNC6)C5)cc4)n3)n2)n1 (stereo not shown) [Compound 214, N-(azetidin-3-yl)-1-[[4-[[4-[[2-(6-methyl-2-pyridyl)pyrimidin-4-yl]amino]pyrimidin-2-yl]amino]phenyl]methyl] piperidine-3-carboxamide] | 0.0398 to 0.316 nM | 25.1 to 158 nM |
| Cc1cccc(-c2nccc(Nc3ccnc(Nc4ccc(N5CCCC(C(=O)OC6CCNCC6)C5)cc4)n3)n2)n1 (stereo not shown) [Compound 215, 4-piperidyl 1-[4-[[4-[[2-(6-methyl-2-pyridyl)pyrimidin-4-yl]amino]pyrimidin-2-yl]amino]phenyl]piperidine-3-carboxylate] | 0.0398 to 0.316 nM | 200 to 1260 nM |
| Cc1cccc(-c2nccc(Nc3ccnc(Nc4csc(C(=O)O[C@H]5CCN(C)C5)c4)n3)n2)n1 [Compound 217, [(3S)-1-methylpyrrolidin-3-yl] 4-[[4-[[2-(6-methyl-2-pyridyl)pyrimidin-4-yl]amino]pyrimidin-2-yl]amino]thiophene-2-carboxylate] | 0.0398 to 0.316 nM | 25.1 to 158 nM |
| Cc1cccc(-c2nccc(Nc3ccnc(Nc4ccc(N5CCC(C(=O)OC6CCNCC6)CC5)cc4)n3)n2)n1 [Compound 218, 4-piperidyl 1-[4-[[4-[[2-(6-methyl-2-pyridyl)pyrimidin-4-yl]amino]pyrimidin-2-yl]amino]phenyl]piperidine-4-carboxylate] | 0.0398 to 0.316 nM | 25.1 to 158 nM |
| Cc1cccc(-c2nccc(Nc3ccnc(Nc4ccc(N5CCC(CNCc6ccccn6)CC5)cc4)n3)n2)n1 [Compound 219, N4-[2-(6-methyl-2-pyridyl)pyrimidin-4-yl]-N2-[4-[4-[(2-pyridylmethylamino)methyl]-1-piperidyl]phenyl]pyrimidine-2,4-diamine] | 0.0398 to 0.316 nM | 25.1 to 158 nM |
| Cc1cccc(-c2nccc(Nc3ccnc(Nc4ccc(N5CCC(C(=O)OC6CNC6)CC5)cc4)n3)n2)n1 [Compound 220, azetidin-3-yl 1-[4-[[4-[[2-(6-methyl-2-pyridyl)pyrimidin-4-yl]amino]pyrimidin-2-yl]amino]phenyl]piperidine-4-carboxylate] | 0.0398 to 0.316 nM | 25.1 to 158 nM |
| Cc1cccc(-c2nccc(Nc3ccnc(Nc4ccc(N5C6CCC5CNC6)cc4)n3)n2)n1 [Compound 221, N2-(4-(3,8-diazabicyclo[3.2.1]octan-8-yl)phenyl)-N4-(2-(6-methylpyridin-2-yl)pyrimidin-4-yl)pyrimidine-2,4-diamine] | 0.0398 to 0.316 nM | 25.1 to 158 nM |
| Cc1cccc(-c2nc(C)cc(Nc3ccnc(Nc4ccc(N5CCN(C)CC5)cc4)n3)n2)n1 [Compound 222, N4-[6-methyl-2-(6-methyl-2-pyridyl)pyrimidin-4-yl]-N2-[4-(4-methylpiperazin-1-yl)phenyl]pyrimidine-2,4-diamine] | 0.0398 to 0.316 nM | 25.1 to 158 nM |
| Cc1cccc(-c2nccc(Nc3ccnc(Nc4ccc5c(c4)CCN(C(C)C)CC5)n3)n2)n1 [Compound 223, N2-(3-isopropyl-2,3,4,5-tetrahydro-1H-benzo[d]azepin-7-yl)-N4-(2-(6-methylpyridin-2-yl)pyrimidin-4-yl)pyrimidine-2,4-diamine] | ≤ 0.0316 nM | 25.1 to 158 nM |
| Cc1cccc(-c2nccc(Nc3ccnc(Nc4ccc(CN5CCC[C@H](C(=O)O)C5)cc4)n3)n2)n1 [Compound 224, (3S)-1-[[4-[[4-[[2-(6-methyl-2-pyridyl)pyrimidin-4-yl]amino]pyrimidin-2-yl]amino]phenyl]methyl] piperidine-3-carboxylic acid] | 0.0398 to 0.316 nM | 200 to 1260 nM |
| Cc1cccc(-c2nccc(Nc3ccnc(Nc4ccc5c(c4)NCCC5)n3)n2)n1 [Compound 225, N4-[2-(6-methyl-2-pyridyl)pyrimidin-4-yl]-N2-(1,2,3,4-tetrahydroquinolin-7-yl)pyrimidine-2,4-diamine] | 0.0398 to 0.316 nM | 25.1 to 158 nM |
| Cc1cccc(-c2nccc(Nc3ccnc(Nc4nc(C)cs4)n3)n2)n1 [Compound 226, N4-[2-(6-methyl-2-pyridyl)pyrimidin-4-yl]-N2-(4-methylthiazol-2-yl)pyrimidine-2,4-diamine] | 3.98 to 31.6 nM | 25.1 to 158 nM |
| Cc1cccc(-c2nccc(Nc3ccnc(Nc4cccc(NC(=O)C5CCNC5)c4)n3)n2)n1 (stereo not shown) [Compound 227, N-[3-[[4-[[2-(6-methyl-2-pyridyl)pyrimidin-4-yl]amino]pyrimidin-2-yl]amino]phenyl]pyrrolidine-3-carboxamide] | 0.0398 to 0.316 nM | ≤ 20 nM |
| Cc1cccc(-c2nccc(Nc3ccnc(Nc4ccc(NC(=O)N5CCNCC5)cc4)n3)n2)n1 [Compound 228, N-(4-((4-((2-(6-methylpyridin-2-yl)pyrimidin-4-yl)amino)pyrimidin-2-yl)amino)phenyl)piperazine-1-carboxamide] | 0.0398 to 0.316 nM | 25.1 to 158 nM |
| Cc1cccc(-c2nccc(Nc3ccnc(Nc4ccc(NS(=O)(=O)C5CCNCC5)cc4)n3)n2)n1 [Compound 229, N-[4-[[4-[[2-(6-methyl-2-pyridyl)pyrimidin-4-yl]amino]pyrimidin-2-yl]amino]phenyl]piperidine-4-sulfonamide] | 0.0398 to 0.316 nM | 25.1 to 158 nM |
| Cc1cccc(-c2nccc(Nc3ccnc(Nc4ccc(C5CCNC5)cc4)n3)n2)n1 (stereo not shown) [Compound 231, N4-[2-(6-methyl-2-pyridyl)pyrimidin-4-yl]-N2-(4-pyrrolidin-3-ylphenyl)pyrimidine-2,4-diamine] | 0.0398 to 0.316 nM | 25.1 to 158 nM |
| Cc1cccc(-c2nccc(Nc3ccnc(Nc4ccc(-c5cn6c(n5)CNCC6)cc4)n3)n2)n1 [Compound 232, N4-[2-(6-methyl-2-pyridyl)pyrimidin-4-yl]-N2-[4-(5,6,7,8-tetrahydroimidazo[1,2-a]pyrazin-2-yl)phenyl]pyrimidine-2,4-diamine] | 0.0398 to 0.316 nM | 25.1 to 158 nM |
| Cc1cccc(-c2nccc(Nc3ccnc(Nc4cccc(N5CCN(C)CC5)c4)n3)n2)n1 [Compound 233, N2-[3-(4-methylpiperazin-1-yl)phenyl]-N4-[2-(6-methyl-2-pyridyl)pyrimidin-4-yl]pyrimidine-2,4-diamine] | 0.0398 to 0.316 nM | 25.1 to 158 nM |
| Cc1cccc(-c2nccc(Nc3ccnc(Nc4ccc(Br)cc4)n3)n2)n1 [Compound 234, N2-(4-bromophenyl)-N4-[2-(6-methyl-2-pyridyl)pyrimidin-4-yl]pyrimidine-2,4-diamine] | 3.98 to 31.6 nM | 25.1 to 158 nM |
| Cc1cccc(-c2nccc(Nc3ccnc(Nc4ccc(N5CCN(CC6CCC(=O)O6)CC5)cc4)n3)n2)n1 (stereo not shown) [Compound 235, 5-[[4-[4-[[4-[[2-(6-methyl-2-pyridyl)pyrimidin-4-yl]amino]pyrimidin-2-yl]amino]phenyl]piperazin-1-yl]methyl]tetrahydrofuran-2-one] | 0.0398 to 0.316 nM | ≤ 20 nM |
| COC(=O)C1CN(CCNc2ccc(Nc3nccc(Nc4ccnc(-c5cccc(C)n5)n4)n3)cc2)CCN1C (stereo not shown) [Compound 236, methyl 1-methyl-4-[2-[4-[[4-[[2-(6-methyl-2-pyridyl)pyrimidin-4-yl]amino]pyrimidin-2-yl]amino]anilino]ethyl] piperazine-2-carboxylate] | 0.398 to 3.16 nM | 25.1 to 158 nM |
| Cc1cccc(-c2nccc(Nc3ccnc(Nc4ccc(CN5CC(C(=O)O)C5)cc4)n3)n2)n1 [Compound 237, 1-[[4-[[4-[[2-(6-methyl-2-pyridyl)pyrimidin-4-yl]amino]pyrimidin-2-yl]amino]phenyl]methyl] azetidine-3-carboxylic acid] | 0.0398 to 0.316 nM | 200 to 1260 nM |
| Cc1cccc(-c2nccc(Nc3ccnc(Nc4ccc(Cl)c(CN5CCN(C)CC5)c4)n3)n2)n1 [Compound 238, N2-[4-chloro-3-[(4-methylpiperazin-1-yl)methyl]phenyl]-N4-[2-(6-methyl-2-pyridyl)pyrimidin-4-yl]pyrimidine-2,4-diamine] | 0.0398 to 0.316 nM | 25.1 to 158 nM |
| Cc1cccc(-c2nccc(Nc3ccnc(Nc4ccc(C(=O)OC5CCNCC5)s4)n3)n2)n1 [Compound 239, 4-piperidyl 5-[[4-[[2-(6-methyl-2-pyridyl)pyrimidin-4-yl]amino]pyrimidin-2-yl]amino]thiophene-2-carboxylate] | 0.0398 to 0.316 nM | 25.1 to 158 nM |
